Laboratory results published in patent US5461035A, “Short peptides with insulin activity” (priority 1990, dated 1995).
Residues, ends and D or L forms follow the SMILES beside them.

Experiments:
[1] = tested on: Balb-C mice; experiment: Blood glucose profile in mice; format: in vivo; settings: intravenous
Experimental: Female Charles River Wiga Balb-C mice weighing 17 to 21 g (about 30 days old) receive a standard diet. The mice receive no food for 16 hours before the start of the experiment. 5 animals in each experimental group receive intravenous administration of an aqueous solution (pH 6) of the compound from Example 4 (octapeptide). Volume administered 0.3 ml/animal.
The average for each experimental group is indicated in each case.

[2] = tested on: Pieces of diaphragm; experiment: Glucose uptake, D-[U-14C]-glucose, pieces of diaphragm; format: cell-based, rat; settings: D-glucose 75 μM
Experimental: (§1) The biological activity of the peptides according to the invention, of the formula I and II, is determined using lipocytes and pieces of diaphragm obtained by dissection from rats. The term tripeptide means Tyr Cys Asn-OH and hexapeptide means acetyl-Leu Glu Asn Tyr Cys Asn-OH. The term "baseline" means the activity without stimulation, insulin means human insulin and dpm means radioactive disintegrations per minute. The term peptid denotes peptides having insulin activity according to the present invention. Rat lipocytes were prepared as follows:
(§2) Preparation of pieces of diaphragm from rats: small pieces of tissue (5 mm diameter) are punched out of hemidiaphragms (Wistar rat, 60-70 g, no feed restriction) washed several times.
(§3) The two following tests measure the glucose uptake which can be stimulated by insulin and which requires the functional insulin signal-transmission cascade and glucose transport, irrespective of whether glucose is metabolized by oxidation (glycolysis, pentose phosphate pathway) or not by oxidation. The conversion into lipids, glycogen or membrane-impermeable intermediates (glucose 6-phosphate), but not the production of lactate, is followed.
b) Pieces of diaphragm are incubated in the presence or absence of insulin or peptide with D-[U-^14 C]-glucose (final concentration of D-glucose 75 μM). The medium is aspirated out. The pieces of tissue are washed several times and subsequently solubilized by alkali treatment for the determination of radioactivity.

[3] = tested on: Rat lipocytes; experiment: Glucose uptake, D-[U-14C]-glucose, rat lipocytes; format: cell-based; settings: D-glucose 22 μM
Experimental: as §1
Epididymal adipose tissue (Wistar rat, 160-180 g, no feed restriction) is digested with collagenase, and the resulting single lipocytes are washed several times by flotation.
as §3
a) Rat lipocytes are incubated in the presence or absence of insulin or peptide with D-[U-^14 C]-glucose (final concentration of D-glucose 22 μM). The cells are separated from the medium by centrifugation through a silicone oil layer and are reisolated, and the cell-associated radioactivity is determined.

[4] = tested on: Rat lipocytes; experiment: Glucose transport, 2-deoxy-D-[1-3H]-glucose, rat lipocytes; format: cell-based; settings: glucose 0.2 mM
Experimental: Epididymal adipose tissue (Wistar rat, 160-180 g, no feed restriction) is digested with collagenase, and the resulting single lipocytes are washed several times by flotation. Lipocytes and pieces of diaphragm are prepared as in Example 5. The following tests measure exclusively the specific glucose transport which can be stimulated by insulin (facilitated diffusion) through the plasma membrane by means of glucose carriers, including the insulin signal-transmission cascade. Any effect of glucose metabolism on glucose transport is ruled out by using the non-metabolizable glucose analog. a) Rat lipocytes are incubated in the presence or absence of insulin or peptide with 2-deoxy-D-[1-^3 H]-glucose (final concentration of D-glucose 0.2 mM) and L-[1-^14 C]-glucose (not transportable). To determine the radioactivity ([^3 H] and [^14 C]) the cells are separated from the medium by centrifugation through an oil layer. The specific stereoselective glucose transport is calculated as the difference between the total cell-bound radioactivity ([^3 H]-glucose) and the associated radioactivity due to diffusion and non-specific effects ([C]-glucose).

[5] = tested on: Pieces of diaphragm; experiment: Glucose transport, 2-deoxy-D-[1-3H]-glucose, pieces of diaphragm; format: cell-based, rat; settings: glucose 0.1 mM
Experimental: as §2
Lipocytes and pieces of diaphragm are prepared as in Example 5. The following tests measure exclusively the specific glucose transport which can be stimulated by insulin (facilitated diffusion) through the plasma membrane by means of glucose carriers, including the insulin signal-transmission cascade. Any effect of glucose metabolism on glucose transport is ruled out by using the non-metabolizable glucose analog.
b) Pieces of diaphragm are incubated in the presence or absence of insulin or peptide with 2-deoxy-D-[1-^3 H]-glucose (final concentration of D-glucose 0.1 mM) and L-[1-^14 C]-glucose. The pieces of tissue are separated from the medium by rapid filtration through glass fiber filters and are thoroughly washed. The radioactivity is measured in an alkaline extract.

[6] = tested on: Rat lipocytes; experiment: Lipogenesis in trypsin-treated rat lipocytes (insulin receptor inactivated); format: cell-based
Experimental: Rat lipocytes from Example 5 are treated with low concentrations of trypsin to inactivate the insulin receptor by proteolysis. After addition of protease inhibitors, the cells are washed twice by flotation, and the incubation is continued at 37° C. for 15 min. These cells are then used for the test of stimulation of lipogenesis by the peptides. […] This means that this test measures stimulation of lipogenesis owing to interventions in the insulin signal-transmission cascade after receptor binding of insulin.

[7] = tested on: Rat lipocytes; experiment: Esterification in vitro of glycerol 3-phosphate in saponin-permeabilized lipocytes; format: cell-based
Experimental: This test measures the esterification of glycerol 3-phosphate which can be stimulated by insulin in lipid products (triglycerides, phospholipids). The enzymes of lipid synthesis (for example acyl-CoA: L-glycerol 3-phosphate acyltransferase) are involved in this, including a functional insulin signal-transmission cascade. […] The incubation is continued after addition of L-[U-^14 C]-glycerol 3-phosphate. Toluene-soluble scintillation cocktail is added and the lipid is separated from the aqueous phase by centrifugation. The toluene phase containing the lipid is removed and its radioactivity is determined.

H-Tyr(Bu^t)-Gln-Leu-Glu(OBu^t)-Asn-Tyr(Bu^t)-Cys(Trt-Asn-Obu^t.HBr [Octapeptide]
Blood glucose level, percentage difference to control group ([1]; 500 μg/animal, 20 minutes): -2% | Blood glucose level, percentage difference to control group ([1]; 500 μg/animal, 40 minutes): -5% | Blood glucose level, percentage difference to control group ([1]; 500 μg/animal, 60 minutes): -13% | Blood glucose level, percentage difference to control group ([1]; 500 μg/animal, 75 minutes): -21% | Blood glucose level, percentage difference to control group ([1]; 500 μg/animal, 90 minutes): -21% | Blood glucose level, percentage difference to control group ([1]; 1000 μg/animal, 20 minutes): -31% | Blood glucose level, percentage difference to control group ([1]; 1000 μg/animal, 40 minutes): -19% | Blood glucose level, percentage difference to control group ([1]; 1000 μg/animal, 60 minutes): -23% | Blood glucose level, percentage difference to control group ([1]; 1000 μg/animal, 75 minutes): -24% | Blood glucose level, percentage difference to control group ([1]; 1000 μg/animal, 90 minutes): -19%

Ac-LENYCN-OH [Hexapeptide, Acetyl-Leu-Glu-Asn-Tyr-Cys-Asn-OH]
Glucose uptake ([2]; peptide 0.1 Mm): 7429 dpm | Glucose uptake ([2]; peptide 0.5 Mm): 7752 dpm | Glucose uptake ([2]; peptide 1 Mm): 8597 dpm | Glucose uptake ([3]; peptide 0.1 Mm): 1488 dpm | Glucose uptake ([3]; peptide 0.5 Mm): 1917 dpm | Glucose uptake ([3]; peptide 1 Mm): 4218 dpm | Glucose transport ([4]; peptide 0.1 Mm): 2218 dpm | Glucose transport ([4]; peptide 0.5 Mm): 2842 dpm | Glucose transport ([4]; peptide 1 Mm): 3922 dpm | Glucose transport ([5]; peptide 0.1 Mm): 8450 dpm | Glucose transport ([5]; peptide 0.5 Mm): 8928 dpm | Glucose transport ([5]; peptide 1 Mm): 9676 dpm

Insulin: insulin means human insulin
Lipogenesis ([6]; insulin 5 ng): 3087 dpm | Esterification with lipocytes ([7]; insulin 5 ng): 3640 dpm | Glucose uptake ([2]; insulin 0.5 ng): 10055 dpm | Glucose uptake ([2]; insulin 5 ng): 20841 dpm | Glucose uptake ([3]; insulin 0.5 ng): 4379 dpm | Glucose uptake ([3]; insulin 5 ng): 26312 dpm | Glucose transport ([4]; insulin 0.5 ng): 4851 dpm | Glucose transport ([4]; insulin 5 ng): 20342 dpm | Glucose transport ([5]; insulin 0.5 ng): 10828 dpm | Glucose transport ([5]; insulin 5 ng): 17750 dpm

NC(=O)C[C@H](NC(=O)[C@H](CS)NC(=O)[C@@H](N)Cc1ccc(O)cc1)C(=O)O [Tripeptide, H-Tyr-Cys-Asn-OH] (H-Tyr-Cys-Asn-OH)
Lipogenesis ([6]; peptide 0.5 mM): 4145 dpm | Lipogenesis ([6]; peptide 0.1 Mm): 3250 dpm | Lipogenesis ([6]; peptide 1 Mm): 5072 dpm | Esterification with lipocytes ([7]; peptide 0.5 mM): 4422 dpm | Esterification with lipocytes ([7]; peptide 0.1 Mm): 3710 dpm | Esterification with lipocytes ([7]; peptide 1 Mm): 5398 dpm | Glucose uptake ([2]; peptide 0.1 Mm): 7591 dpm | Glucose uptake ([2]; peptide 0.5 Mm): 8540 dpm | Glucose uptake ([2]; peptide 1 Mm): 11588 dpm | Glucose uptake ([3]; peptide 0.1 Mm): 1838 dpm | Glucose uptake ([3]; peptide 0.5 Mm): 2947 dpm | Glucose uptake ([3]; peptide 1 Mm): 6533 dpm | Glucose transport ([4]; peptide 0.1 Mm): 2289 dpm | Glucose transport ([4]; peptide 0.5 Mm): 3055 dpm | Glucose transport ([4]; peptide 1 Mm): 5781 dpm | Glucose transport ([5]; peptide 0.1 Mm): 8836 dpm | Glucose transport ([5]; peptide 0.5 Mm): 9822 dpm | Glucose transport ([5]; peptide 1 Mm): 11252 dpm
